Results taken from the supplement of paper PMC10307832.

Tests used:
Experiment in all cases: relative viability (nuclei count vs DMSO), 5 days (fraction); higher = more cells survive
Avagacestat + Decitabine = compound: NC(=O)[C@@H](CCC(F)(F)F)N(Cc1ccc(-c2ncon2)cc1F)S(=O)(=O)c1ccc(Cl)cc1 [Avagacestat] + Nc1ncn([C@H]2C[C@H](O)[C@@H](CO)O2)c(=O)n1 [Decitabine] (partner 2 µM)
Method in brief: (§1)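 Lung cancer cell lines, seeded in 1536-well plates, were treated the following day by pin tool with a single drug or with five library-drug doses (not always all listed) in √10 steps on top of a fixed anchor-drug dose. Cells were fixed and nuclei stained in one step after 5 days, and nuclei were counted. Relative viability is the nuclei count for treated wells divided by that for vehicle wells, reported as medians of duplicate plates.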

Avagacestat + Crizotinib = compound: NC(=O)[C@@H](CCC(F)(F)F)N(Cc1ccc(-c2ncon2)cc1F)S(=O)(=O)c1ccc(Cl)cc1 [Avagacestat] + C[C@@H](Oc1cc(-c2cnn(C3CCNCC3)c2)cnc1N)c1c(Cl)ccc(F)c1Cl [Crizotinib] (partner 1 µM)
Method in brief: as §1

Avagacestat + Phenformin = compound: NC(=O)[C@@H](CCC(F)(F)F)N(Cc1ccc(-c2ncon2)cc1F)S(=O)(=O)c1ccc(Cl)cc1 [Avagacestat] + N=C(N)NC(=N)NCCc1ccccc1 [Phenformin] (partner 250 µM)
Method in brief: as §1

Avagacestat + Navitoclax = compound: NC(=O)[C@@H](CCC(F)(F)F)N(Cc1ccc(-c2ncon2)cc1F)S(=O)(=O)c1ccc(Cl)cc1 [Avagacestat] + CC1(C)CCC(c2ccc(Cl)cc2)=C(CN2CCN(c3ccc(C(=O)NS(=O)(=O)c4ccc(N[C@H](CCN5CCOCC5)CSc5ccccc5)c(S(=O)(=O)C(F)(F)F)c4)cc3)CC2)C1 [Navitoclax] (partner 0.5 µM)
Method in brief: as §1

Cell Line	relative viability (Avagacestat + Decitabine; first compound 0.08 µM)	relative viability (Avagacestat + Decitabine; first compound 0.253 µM)	relative viability (Avagacestat + Decitabine; first compound 0.8 µM)	relative viability (Avagacestat + Decitabine; first compound 2.53 µM)	relative viability (Avagacestat + Decitabine; first compound 8 µM)	relative viability (Avagacestat + Crizotinib; first compound 0.08 µM)	relative viability (Avagacestat + Crizotinib; first compound 0.253 µM)	relative viability (Avagacestat + Crizotinib; first compound 0.8 µM)	relative viability (Avagacestat + Crizotinib; first compound 2.53 µM)	relative viability (Avagacestat + Crizotinib; first compound 8 µM)	relative viability (Avagacestat + Phenformin; first compound 0.08 µM)	relative viability (Avagacestat + Phenformin; first compound 0.253 µM)	relative viability (Avagacestat + Phenformin; first compound 0.8 µM)	relative viability (Avagacestat + Phenformin; first compound 2.53 µM)	relative viability (Avagacestat + Phenformin; first compound 8 µM)	relative viability (Avagacestat + Navitoclax; first compound 0.08 µM)	relative viability (Avagacestat + Navitoclax; first compound 0.253 µM)	relative viability (Avagacestat + Navitoclax; first compound 0.8 µM)	relative viability (Avagacestat + Navitoclax; first compound 2.53 µM)	relative viability (Avagacestat + Navitoclax; first compound 8 µM)
HCC-366	0.463	0.344	0.36	0.306	0.271	0.608	0.645	0.517	0.525	0.645	0.654	0.709	0.599	0.562	0.594	1.23	1.48	1	1.09	1.01
HCC-827	0.328	0.313	0.327	0.329	0.296	0.868	0.85	0.992	1.03	0.999	0.478	0.397	0.509	0.405	0.35	1.12	1.02	1.11	1.07	1.02
HOP-62	0.211	0.229	0.194	0.221	0.218	0.936	1.08	0.995	1.05	1.03	0.874	0.775	0.76	0.657	0.492	1.26	1.12	0.962	0.978	0.895
LC-2-ad	0.837	0.839	0.867	0.833	0.776	0.548	0.367	0.458	0.435	0.391	0.577	0.651	0.713	0.602	0.554	0.652	0.528	0.534	0.423	0.428
LCLC-97TM1	0.25	0.214	0.229	0.217	0.203	0.317	0.289	0.301	0.241	0.397	0.526	0.472	0.487	0.481	0.468	0.467	0.409	0.39	0.128	0.341
LK-2	0.413	0.269	0.256		0.291	0.241	0.206	0.249	0.282	0.235	0.6	0.36	0.32	0.384	0.375	1.16	0.969	0.704	0.365	0.797
LOU-NH91	0.868	0.812	0.84	0.807	0.79	0.739	0.725	0.732	0.73	0.761	0.708	0.652	0.862	0.717	0.754	0.69	0.723	0.684	0.531	0.646
LU99A	0.835	0.98	0.964	0.772	0.816	0.521	0.646	0.571	0.595	0.628	0.867	0.944	0.923	0.821	0.902	0.869	0.8	0.776	0.852	0.777
LXF-289	0.359	0.368	0.408	0.347	0.331	0.852	0.941	0.795	0.816	0.774	0.516	0.505	0.495	0.495	0.476	0.964	0.996	1	1	0.885
NCI-H23	0.416	0.316	0.308	0.328	0.272	0.547	0.473	0.627	0.471	0.345	0.941	0.86	0.761	0.859	0.851	0.876	0.993	0.99	0.877	0.943
NCI-H322M	0.736	0.626	0.729	0.629	0.611	0.874	1.03	0.952	0.934	0.787	0.733	0.748	0.712	0.69	0.65	1.24	1.16	1.22	1.14	1.07
NCI-H441	0.263	0.232	0.245	0.265	0.24	0.977	0.816	0.71	1.19	0.629	1.23	0.957	1.02	0.917	0.676	0.504	0.491	1.01	0.49	0.668
NCI-H460	0.628	0.703	0.481	0.417	0.419	1.86	1.69	0.977	0.893	0.853	0.597	0.866	0.771	0.337	0.379		1.92	1.37	0.759	1.15
NCI-H520	0.606	0.501	0.467	0.453	0.475	0.895	0.836	0.729	0.727	0.459	0.648	0.612	0.494	0.436	0.529	1.16	1.15	1.06	0.95	1.06
NCI-H596	1.09	1.01	1.28	0.906	0.928	1.1	0.944	1.02	0.78	0.925	0.78	0.717	0.867	0.699	0.653	1.21	1.02	0.928	0.792	0.865
NCI-H647	0.459	0.465	0.42	0.374	0.377	1.31	1.41	1.19	1.03	1.07	0.534	0.587	0.692	0.487	0.414	1.27	1.5	1.31	1.02	0.952
